How the values were obtained:
[1] = in vivo; conditions: chimpanzee, po
Protocol: Four chimps (two male and two female) were used in this study and were fasted overnight prior to administration of the compound solution. Animals were sedated with ketamine and/or telazol prior to dosing. Intravenous dosing was achieved by IV infusion over 30 minutes.
Approximately 4.5 mL of blood was collected into vacutainer tubes with sodium heparin as an anticoagulant at 0 (preinfusion), 15 min., 29.5 min (immediately before the end of the infusion), and then at 6, 15, 30, and 45 minutes, and 1, 2, 4, 6, 8, 10, 12, 24 hours after the infusion is stopped. A similar procedure was used to collect blood after oral dosing with samples taken at 0 (predose), 15, and 30 minutes, and at 1, 1.5, 2, 4, 6, 8, 10, 12, 24 hours postdose. Following sample collection, the vacutainer tubes were rocked by hand several times to insure adequate mixing. Blood samples were placed immediately on wet ice and centrifuged within 1 hour from time of collection. Following centrifugation, the resulting plasma was stored frozen at −70° C. until analysis. The results are summarized in FIGS. 4 and 5 and tables 6 and 7.
Run B: Same as Run A, except the dose was 150 mg orally of each of atazanavir and compounds 114 and 120, and the vehicle was 10 percent ethanol, 40 percent polypropylglycol in 2.5 percent citric acid.

[2] = Rat pharmacokinetics, intravenous and oral co-dosing of Compound 122 and atazanavir; format: in vivo; conditions: male, Sprague-Dawley, plasma, rats, 1 mg/kg of each
Protocol: Rat Pharmacokinetics. […] Then the combo dose was prepared by mixing both by 1:1 to yield a final concentrations at 1 mg/mL for each compound (pH=5-6) for intravenous and oral administration. Male Sprague-Dawley rats (body weight: 170 g to 235 g) were used in this study. […] Blood samples (300 μL) were collected via the retro-orbital vein at pre-dose and 0.083, 0.25, 0.5, 1, 2, 4, 6, 8, 10, 12 and 24 hours post-dose. Blood samples were placed into heparinized eppendorf tubes (evaporated) and then centrifuged at 8000 rpm for 6 minutes. 100 μL aliquots of plasma were transferred to clean Eppendorf tubes and stored with the dose formulation at -20° C. until bioanalysis. For bioanalysis, plasma was thawed and added to it was 20 μL methanol and 500 μL of a 50 ng/ml internal standard solution (quetiapine in methanol). The sample was vortexed, centrifuged at 15,000 rpm for 5 minutes and the supernatant transferred to glass autosampler vials. Analyses of plasma samples were performed using a high performance liquid chromatography/mass spectrometry (HPLC/MS/MS) method. The LC system comprised an Agilent (Agilent Technologies Inc, USA) liquid chromatograph equipped with an isocratic pump (1100 series), an autosampler (1100 series) and a […]). Mass spectrometric analysis was performed using an API3000 (triple-quadrupole) instrument from AB Inc (Canada) with an ESI interface. The data acquisition and control system were created using Analyst 1.4 software from ABI Inc. Following intravenous co-administration of Compound 122 and atazanavir, atazanavir disappeared more rapidly from the blood.

Row | concentration detected intact in urine ([1]; 24 h) | concentration at 24 h ([1]; concentration detected intact in urine) | AUC ([2]; intravenous co-dosing) | half-life ([2]; intravenous co-dosing) | AUC ([2]; oral co-dosing) | Cmax ([2]; oral co-dosing) | half-life ([2]; oral co-dosing) | Structure (SMILES)
1 | 3260 ng/mL | 1640 ng/mL | 475 ± 15.9 ng·h/mL | 13.8 ± 0.6 min | 86 ± 51.2 ng·h/mL | 109 ± 67.2 ng/mL | 19.2 ± 3.6 min | COC(=O)N[C@H](C(=O)N[C@@H](Cc1ccccc1)[C@@H](O)CN(Cc1ccc(-c2ccccn2)cc1)NC(=O)[C@@H](NC(=O)OC)C(C)(C)C)C(C)(C)C [Atazanavir, atazanavir, reference compound]
2 |  |  | 503 ± 25.1 ng·h/mL | 15 ± 1.2 min | 156 ± 70.6 ng·h/mL | 183 ± 113 ng/mL | 27.6 ± 9.6 min | [2H]C([2H])([2H])OC(=O)N[C@H](C(=O)N[C@@H](Cc1ccccc1)[C@@H](O)CN(Cc1ccc(-c2ccccn2)cc1)NC(=O)[C@@H](NC(=O)OC([2H])([2H])[2H])C(C([2H])([2H])[2H])(C([2H])([2H])[2H])C([2H])([2H])[2H])C(C([2H])([2H])[2H])(C([2H])([2H])[2H])C([2H])([2H])[2H] [Compound 122, 1,14-Di(methyl-d3)(3S,8S,9S,12S)-3,12-bis[(1,1-dimethylethyl)-d9]-8-hydroxy-4,11-dioxo-9-(phenylmethyl)-6-[[4-(2-pyridinyl)phenyl]methyl]-2,5,6,10,13-pentaazatetradecanedioate]
